Data taken from PMC11219871, “Epigenetic-based differentiation therapy for Acute Myeloid Leukemia” (Nature Communications, 2024).
Read-outs that look alike come from different tables or passages of the source.

Assays:
[1] = Pharmacokinetic study in plasma samples; type: in vivo, mouse; details: 10 mg/kg i.p.; for CL/F: read-out: Norm. Cl/F (converted)
Procedure: Compounds CM-444 and CM-1758 were measured in plasma using an Acquity UPLC system (Waters, Manchester, UK) coupled to an Xevo-TQ MS triple-quadrupole mass spectrometer with ESI source.
Compound solutions were prepared by dissolving the solid in dimethyl sulfoxide (DMSO) and this solution was made up to a final volume by the addition of a mixture of Tween 20 and 0.9% NaCl (1/1/8, v-v:v, DMSO/Tween 20/saline). For the pharmacokinetic experiments, a drug dosage of 10 mg/kg was administered as a single intraperitoneal injection to RAG-2 mice. Blood was collected at predetermined post-injection times (15 min, and 1, 2, 4, 8 and 24 h) into EDTA-containing tubes, and plasma was obtained via centrifugation (4 °C, 657 g, 5 min) and stored at −80 °C until analysis.
Chromatographic separation was performed by gradient elution at 0.6 mL/min using an Acquity UPLC BEH C18 column (50 × 2.1 mm, 1.7 µm; Waters). The mobile phase consisted of A: water with 0.1% formic acid, B: methanol with 0.1% formic acid. The autosampler temperature was set at 10 °C and the column temperature at 40 °C. For detection and quantification, the ESI operated in the positive mode was set up for multiple reaction monitoring. The collision gas used was ultra-pure argon at a flow rate of 0.15 mL/min.
Quantification was achieved by external calibration using matrix-matched standards. Concentrations were calculated using a weighted least-squares linear regression (W = 1/x). Calibration standards were prepared by adding the appropriate volume of diluted compound solution (made in a mixture of methanol and water, 50:50, v-v) to aliquots of 20 µL of blank plasma. The calibration standard and sample preparation were as follows: 3% formic acid in methanol was added to precipitate the proteins. The mixture was then vortex-agitated for 1 min and centrifuged at 16,522 g for 10 min at 4 °C. A 5-µL aliquot of the supernatant solution was injected into the LC-MS/MS system for analysis. Frozen plasma samples were thawed at room temperature, vortex mixed thoroughly and subjected to the above-described extraction procedure.
The pharmacokinetic parameters were obtained by fitting the blood concentration-time data to a non-compartmental model with WinNonlin software (Pharsight, Mountain View, CA).

BRD4 (BD1) = molecular target: T1, BRD4 (BD1) (Homo sapiens, UniProt O60885); assay: Epigenetic panel (BPS Bioscience); type: binding
T1 construct: purchased BPS Bioscience; Eurofins (HDAC4, 5, 7-11)
Excerpt: (§1) The selectivity of CM-444 and CM-1758 against other epigenetic targets, including histone demethylase (JMJD2A, JMJD2B, JMJD2C, JMJD2D, JMJD2E, JMJD3, JMJD1A, LSD1, Jarid1A, Jarid1B, Jarid1C, FBXL10, FBXL11, JHDM1D, JMJD1B, PHF8, LSD2 and UTX); histone acetyltransferases (GCN5, P300); histone methyltransferases (G9a, GLP, MLL1, SET7/9, SUV39H1, SUV39H2, PRMT1, PRMT3, PRMT4, PRMT5, PRMT6, PRMT8, PRMT9, NSD1, NSD2, EZH1, EZH2, SETDB1, SETD2, SET8, SUV4-20H1, SMYD2, SMYD3, DOT1L, EZH2 (A677G), EZH2 (A677G), EZH2 (A738T), EZH2 (Y641S), EZH2 (P132S), EZH2 (Y641C), EZH2 (Y641F), EZH2 (Y641H), EZH2 (Y641N)); bromodomains (ATAD2B, ATAD2A, BRD1, BRD9, BPTF/FALZ, CeCR2, BRPF3, BRD3 (BD1 + BD2), BAZ2B, WDR9, TAF1 (BD2), TAF1L (BD2), TAF1L (BD1 + BD2), BRD2 (BD1), BRD2 (BD2), BRD2 (BD1 + BD2), BRD3 (BD1), BRD3 (BD2), BRD4 (BD1), BRD4 (BD2), BRD4 (BD1 + BD2), BRDT (BD1), BRDT (BD1 + BD2), CREBBP, SMARCA2A, SMARCA4/BRG1); DNA methyltranferases (DNMT1, DNMT3A/3L and DNMT3B/3L), and sirtuin histone deacetylases (SIRT1, SIRT2, SIRT3, SIRT5 and SIRT6), were determined by BPS Bioscience (http://www.bpsbioscience.com/index.ph). Binding experiments were performed in duplicate at a concentration of 10 μM.

SMARCA2A = molecular target: T2, SMARCA2A (Homo sapiens, UniProt P51531); assay: Epigenetic panel (BPS Bioscience); type: binding
T2 construct: purchased BPS Bioscience; Eurofins (HDAC4, 5, 7-11)
T2 sequence (P51531 whole entry): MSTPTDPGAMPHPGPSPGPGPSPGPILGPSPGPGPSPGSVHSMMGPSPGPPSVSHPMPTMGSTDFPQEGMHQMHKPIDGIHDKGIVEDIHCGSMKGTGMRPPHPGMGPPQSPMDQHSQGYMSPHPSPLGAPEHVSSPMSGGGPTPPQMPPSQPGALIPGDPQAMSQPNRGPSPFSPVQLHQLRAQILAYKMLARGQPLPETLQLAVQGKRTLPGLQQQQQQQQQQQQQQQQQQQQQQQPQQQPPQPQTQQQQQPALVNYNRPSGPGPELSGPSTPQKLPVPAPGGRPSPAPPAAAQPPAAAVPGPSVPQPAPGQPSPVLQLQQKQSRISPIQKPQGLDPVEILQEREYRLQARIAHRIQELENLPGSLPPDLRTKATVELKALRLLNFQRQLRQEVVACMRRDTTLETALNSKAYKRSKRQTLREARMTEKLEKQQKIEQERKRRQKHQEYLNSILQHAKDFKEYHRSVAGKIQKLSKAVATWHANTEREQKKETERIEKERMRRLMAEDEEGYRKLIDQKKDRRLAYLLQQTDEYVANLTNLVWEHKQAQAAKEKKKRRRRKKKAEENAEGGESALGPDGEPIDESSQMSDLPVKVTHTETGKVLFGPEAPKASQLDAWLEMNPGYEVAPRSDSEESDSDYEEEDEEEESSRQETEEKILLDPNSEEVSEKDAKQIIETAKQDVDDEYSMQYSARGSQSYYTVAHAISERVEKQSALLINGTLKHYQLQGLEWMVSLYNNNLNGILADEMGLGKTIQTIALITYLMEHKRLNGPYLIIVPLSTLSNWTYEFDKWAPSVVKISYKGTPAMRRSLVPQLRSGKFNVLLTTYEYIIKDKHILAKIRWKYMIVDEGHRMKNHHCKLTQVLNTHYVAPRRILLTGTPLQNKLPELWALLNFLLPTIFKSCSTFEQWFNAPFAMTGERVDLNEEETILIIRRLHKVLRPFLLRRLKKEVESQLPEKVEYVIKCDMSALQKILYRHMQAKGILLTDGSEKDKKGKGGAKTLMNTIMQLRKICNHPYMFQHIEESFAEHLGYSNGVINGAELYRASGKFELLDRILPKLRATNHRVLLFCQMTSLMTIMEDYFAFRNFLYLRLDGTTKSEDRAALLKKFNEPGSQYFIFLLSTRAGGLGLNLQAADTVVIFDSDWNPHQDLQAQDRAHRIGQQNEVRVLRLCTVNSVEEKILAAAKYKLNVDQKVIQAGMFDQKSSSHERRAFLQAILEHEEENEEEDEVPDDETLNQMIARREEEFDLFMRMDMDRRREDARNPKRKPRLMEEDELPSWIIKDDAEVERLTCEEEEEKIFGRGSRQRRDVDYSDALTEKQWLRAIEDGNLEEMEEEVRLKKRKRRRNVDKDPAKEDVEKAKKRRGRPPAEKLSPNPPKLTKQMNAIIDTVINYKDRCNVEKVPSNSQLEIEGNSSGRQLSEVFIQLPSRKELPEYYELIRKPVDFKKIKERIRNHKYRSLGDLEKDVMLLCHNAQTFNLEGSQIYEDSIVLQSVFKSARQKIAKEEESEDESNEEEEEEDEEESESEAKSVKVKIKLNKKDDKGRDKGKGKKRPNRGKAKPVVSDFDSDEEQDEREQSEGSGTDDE
Excerpt: as §1

SMARCA4/BRG1 = molecular target: T3, SMARCA4/BRG1 (Homo sapiens, UniProt P51532); assay: Epigenetic panel (BPS Bioscience); type: binding
T3 construct: purchased BPS Bioscience; Eurofins (HDAC4, 5, 7-11)
T3 sequence (P51532 whole entry): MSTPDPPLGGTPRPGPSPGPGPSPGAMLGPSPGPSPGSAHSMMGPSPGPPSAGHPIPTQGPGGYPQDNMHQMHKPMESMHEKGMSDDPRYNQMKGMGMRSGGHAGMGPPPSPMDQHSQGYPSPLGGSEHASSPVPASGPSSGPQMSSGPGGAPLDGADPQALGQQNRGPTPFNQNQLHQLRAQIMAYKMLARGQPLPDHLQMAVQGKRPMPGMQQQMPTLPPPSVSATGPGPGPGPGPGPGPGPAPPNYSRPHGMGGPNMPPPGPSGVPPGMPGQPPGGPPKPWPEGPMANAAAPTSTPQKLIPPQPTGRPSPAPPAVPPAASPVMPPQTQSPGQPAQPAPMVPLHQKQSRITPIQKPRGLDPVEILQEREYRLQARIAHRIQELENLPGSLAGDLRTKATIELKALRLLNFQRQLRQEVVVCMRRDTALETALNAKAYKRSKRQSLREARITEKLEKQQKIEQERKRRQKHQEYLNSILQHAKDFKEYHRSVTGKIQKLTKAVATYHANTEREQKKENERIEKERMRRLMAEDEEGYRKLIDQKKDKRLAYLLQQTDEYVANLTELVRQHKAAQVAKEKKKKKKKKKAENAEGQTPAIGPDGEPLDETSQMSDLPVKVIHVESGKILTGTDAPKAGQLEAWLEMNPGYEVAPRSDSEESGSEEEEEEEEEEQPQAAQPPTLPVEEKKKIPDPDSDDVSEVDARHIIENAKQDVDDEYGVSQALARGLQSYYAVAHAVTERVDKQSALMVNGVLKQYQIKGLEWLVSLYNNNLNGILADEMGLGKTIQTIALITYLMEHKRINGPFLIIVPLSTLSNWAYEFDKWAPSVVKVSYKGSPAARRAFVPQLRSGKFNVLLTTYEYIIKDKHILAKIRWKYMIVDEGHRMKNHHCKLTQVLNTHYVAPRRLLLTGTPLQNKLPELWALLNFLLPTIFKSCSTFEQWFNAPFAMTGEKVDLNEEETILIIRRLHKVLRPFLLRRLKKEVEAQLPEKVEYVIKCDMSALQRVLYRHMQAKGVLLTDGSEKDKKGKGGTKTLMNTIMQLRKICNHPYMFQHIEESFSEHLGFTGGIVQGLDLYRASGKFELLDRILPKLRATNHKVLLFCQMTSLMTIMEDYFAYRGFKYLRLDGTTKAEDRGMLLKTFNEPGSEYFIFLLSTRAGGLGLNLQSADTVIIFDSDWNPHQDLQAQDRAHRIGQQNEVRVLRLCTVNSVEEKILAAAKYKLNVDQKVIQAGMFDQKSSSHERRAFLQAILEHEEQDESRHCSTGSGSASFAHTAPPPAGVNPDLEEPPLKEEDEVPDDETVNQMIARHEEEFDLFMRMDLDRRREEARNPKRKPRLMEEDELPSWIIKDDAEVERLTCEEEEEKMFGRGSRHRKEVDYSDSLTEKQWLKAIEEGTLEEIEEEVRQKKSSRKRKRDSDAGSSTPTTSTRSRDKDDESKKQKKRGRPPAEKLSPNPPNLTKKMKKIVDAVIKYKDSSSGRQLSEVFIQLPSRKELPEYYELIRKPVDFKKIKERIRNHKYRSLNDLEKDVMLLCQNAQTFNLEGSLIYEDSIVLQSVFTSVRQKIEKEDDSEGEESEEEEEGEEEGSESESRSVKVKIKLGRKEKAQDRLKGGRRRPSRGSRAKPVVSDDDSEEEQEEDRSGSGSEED
Excerpt: as §1

[2] = system: H3Ac and H3K27me3 levels in HL-60, ML-2, MV4-11 and MOLM-13 cell lines; assay: Western blot of histone marks; type: cell-based, human; details: HL-60, 270 nM CM-444 or 300 nM CM-1758, 48 h
Procedure: Histone extraction was performed with a Histone extraction Kit (Abcam, Cambridge, UK) following the manufacturer’s instructions. The histone concentration in the extract was measured using the dye-binding assay of Bradford. A 10 µg amount of histone was separated on 15% sodium dodecyl sulfate-polyacrylamide gel electrophoresis and transferred to a nitrocellulose membrane. The membrane, after being blocked with Tropix I-block blocking reagent (Cat No AI300, Tropix) in PBS with 0.1% Tween 20 and 0.02 NaN3 was incubated with the primary antibody against Acetyl H3 (rabbit polyclonal antibody, Cat No 06-599, Millipore) diluted 1:50,000 o/n at 4 °C or against H3K27 me3 (mouse monoclonal antibody to histone H3 trimethyl K27, Cat No ab6002, Abcam) diluted 1:2000 in bovine serum albumin o/n at 4 °C and then with alkaline phosphatase-conjugated secondary antibodies. […] Total H3 was used as a loading control (diluted 1:50,000 o/n at 4 °C or for 1 h at room temperature) (Anti-Histone H3, CT, pan, rabbit polyclonal, Cat No 07-690, Millipore). Images have been cropped for presentation.

[3] = RAG-2, mouse, plasma, intraperitoneal, read-out: plasmatic concentration, Mean
[4] = RAG-2, mouse, plasma, ip, mice, NCA
[5] = RAG-2, mouse, plasma, ip, mice, NCA, read-out: Norm. Vz/F

Compound | Cl/F ([1]; mice, NCA, mean) [L/h] | concentration at 0.25 h [1, 3] [nM] | concentration at 1 h [1, 3] [nM] | concentration at 2 h [1, 3] [nM] | concentration at 4 h [1, 3] [nM] | concentration at 8 h [1, 3] [nM] | CL/F [1, 4] [mL/min/kg] | Vd/F [1, 5] [L/kg] | clearance ([1]; mice) [lh^−1] | inhibition at 10 µM (BRD4 (BD1)) [%] | inhibition at 10 µM (SMARCA2A) [%] | inhibition at 10 µM (SMARCA4/BRG1) [%] | H3Ac level (western blot) [2] | H3K27me3 level (western blot) [2] | also measured
COc1cc2nc(-c3ccc(C)o3)cc(NCC3CCN(c4ncc(C(=O)NO)cn4)CC3)c2cc1OC [CM-444, 2-[4-[[[6,7-dimethoxy-2-(5-methyl-2-furyl)-4-quinolyl]amino]methyl]-1-piperidyl]pyrimidine-5-carbohydroxamic acid] | 0.53 | 916 | 203 | 27.7 | 5 | 2.4 | 355 | 262 | 0.53 | 6 | 0 | 0 | significant increase in H3Ac | no changes in H3K27me3 | AUClast ([1]; mice, NCA, mean): 916.15 nM·h; Vz/F ([1]; mice, NCA, mean): 6.56 L; t½ ([1]; mice, NCA, mean): 8.46 h; concentration at 24 h ([1]; RAG-2, mouse, plasma, intraperitoneal, 24 h, read-out: plasmatic concentration, Mean): 0.9 nM
COc1cc2nc(-c3cc(C)oc3C)cc(NCC3CCN(c4ncc(C(=O)NO)cn4)CC3)c2cc1OC [CM-1758, 2-[4-[[[2-(2,5-dimethyl-3-furyl)-6,7-dimethoxy-4-quinolyl]amino]methyl] -1-piperidyl]pyrimidine-5-carbohydroxamic acid] | 0.26 | 1700 | 352 | 77.5 | 17.1 | 4.3 | 173 | 28.6 | 0.26 | 0 | 0 | 18 | significant increase in H3Ac | no changes in H3K27me3 | plasmatic concentration, Mean ([1]; 24 h): BLOQ; AUC(0-t) ([1]; RAG-2, mouse, plasma, ip, mice, NCA, mean): 1.69 µM·h; Vd/F ([1]; RAG-2, mouse, plasma, ip, mice, NCA, mean, read-out: Vz/F): 0.72 L; half-life ([1]; RAG-2, mouse, plasma, ip, mice, NCA, mean, read-out: t½ (converted)): 117 min
